The results in this text go back to ChEMBL document CHEMBL3352808, “Anthraquinone-chalcone hybrids: synthesis, preliminary antiproliferative evaluation and DNA-interaction studies” (Eur J Med Chem, 2015).

Calls of active or inactive are those of the source. The calls are words filed in the database; no cut-off is given here.

One assay relates to MRC5. As to the kind of experiment: Cytotoxicity against human MRC5 cells assessed as reduction in cell survival after 72 hrs by MTT assay. The assay is classed as cell-based. As to conditions: MRC5, 72 h. In general terms: Formazan colour is commonly taken as a measure of viable cells.
The subject of assay [1] is HeLa. As to the kind of experiment: Cytotoxicity against human HeLa cells assessed as reduction in cell survival after 72 hrs by MTT assay. The class given is functional, cell-based.
Assay [2] has as its system A549. As to the kind of experiment: Cytotoxicity against human A549 cells assessed as reduction in cell survival after 72 hrs by MTT assay. The assay is classed as functional, cell-based. As to conditions: A549, 72 h.
The nature of assay [3]: Cytotoxicity against human LS174 cells assessed as reduction in cell survival after 72 hrs by MTT assay. The class given is functional, cell-based. As to conditions: LS174, 72 h.
Assay [4] has as its system HeLa. As to the kind of experiment: Induction of apoptosis in human HeLa cells assessed as caspase-3 activation at cytotoxic IC50 level after 24 hrs by Western blotting method. The assay is classed as functional, cell-based. A general note: A western blot detects proteins with antibodies after separation by electrophoresis.
The species named for assay [5] is Bos taurus. As to the kind of experiment: Displacement of Hoechst 33258 from calf thymus DNA at 30 to 60 uM by spectroscopy.
In assay [6] the test system is HeLa. As to the kind of experiment: Induction of cell cycle arrest in human HeLa cells assessed as accumulation at S phase at 2 times cytotoxic IC50 level after 24 hrs by propidium iodide staining based flow cytometry (reference value: 14.5%). The assay is classed as functional.
In assay [7] the test system is A549. As to the kind of experiment: Induction of apoptosis in human A549 cells assessed as caspase-3 activation at cytotoxic IC50 level after 24 hrs by Western blotting method. The class given is functional, cell-based.
Assay [8] deals with Calf thymus DNA. As to the kind of experiment: Binding affinity to calf thymus DNA assessed as hyperchromism at 20 to 60 uM by spectroscopy. The class given is nucleic-acid assay. As to conditions: Bos taurus.
Assay [9] concerns HeLa. As to the kind of experiment: Induction of cell cycle arrest in human HeLa cells assessed as accumulation at G2/M phase at cytotoxic IC50 level after 24 hrs by propidium iodide staining based flow cytometry (reference value: 24.77%). The class given is functional. On the technique in general: A flow cytometer gives signals particle by particle.
The subject of assay [10] is A549. As to the kind of experiment: Induction of caspase-3 activation in human A549 cells assessed as increase in spectrin cleavage product level at cytotoxic IC50 level after 24 hrs by Western blotting method. The assay is classed as functional, cell-based.
Assay [11] concerns Escherichia coli. As to the kind of experiment: Induction of DNA cleavage of Escherichia coli pUC19 at 2 mM by agarose gel elctrophoresis method.
The species named for assay [12] is Bos taurus. As to the kind of experiment: Displacement of Hoechst 33258 from calf thymus DNA at 30 to 60 uM by spectroscopy relative to control.
The subject of assay [13] is HeLa. As to the kind of experiment: Induction of cell cycle arrest in human HeLa cells assessed as accumulation at G1 phase at cytotoxic IC50 level after 24 hrs by propidium iodide staining based flow cytometry (reference value: 51.33%). The assay is classed as functional.
Assay [14] relates to HeLa. As to the kind of experiment: Induction of cell cycle arrest in human HeLa cells assessed as accumulation at G1 phase at 2 times cytotoxic IC50 level after 24 hrs by propidium iodide staining based flow cytometry (reference value: 51.33%). The class given is functional.
The subject of assay [15] is HeLa. As to the kind of experiment: Induction of apoptosis in human HeLa cells assessed as increase in p18 Bax level at cytotoxic IC50 level after 24 hrs by Western blotting method. The class given is functional, cell-based.
The test system of assay [16] is HeLa. As to the kind of experiment: Induction of caspase-3 activation in human HeLa cells assessed as increase in spectrin cleavage product level at cytotoxic IC50 level after 24 hrs by Western blotting method. The assay is classed as functional, cell-based.
Assay [17] concerns HeLa. As to the kind of experiment: Induction of cell cycle arrest in human HeLa cells assessed as accumulation at subG1 phase at cytotoxic IC50 level after 24 hrs by propidium iodide staining based flow cytometry (reference value: 2.53%). The assay is classed as functional.
In assay [18] the test system is A549. As to the kind of experiment: Induction of apoptosis in human A549 cells assessed as increase in p18 Bax level at cytotoxic IC50 level after 24 hrs by Western blotting method. The assay is classed as functional, cell-based.
The species named for assay [19] is Bos taurus. As to the kind of experiment: Displacement of ethidium bromide from calf thymus DNA at 30 to 60 uM by spectroscopy.
Assay [20] has as its system HeLa. As to the kind of experiment: Induction of cell cycle arrest in human HeLa cells assessed as accumulation at S phase at cytotoxic IC50 level after 24 hrs by propidium iodide staining based flow cytometry (reference value: 14.5%). The class given is functional.
Assay [21] deals with Calf thymus DNA. As to the kind of experiment: Binding affinity to calf thymus DNA assessed as binding constant at 20 to 60 uM by spectroscopy. The class given is nucleic-acid assay. As to conditions: Bos taurus.
The subject of assay [22] is HeLa. As to the kind of experiment: Induction of cell cycle arrest in human HeLa cells assessed as accumulation at G2/M phase at 2 times cytotoxic IC50 level after 24 hrs by propidium iodide staining based flow cytometry (reference value: 24.77%). The assay is classed as functional.
The subject of assay [23] is HeLa. As to the kind of experiment: Induction of cell cycle arrest in human HeLa cells assessed as accumulation at subG1 phase at 2 times cytotoxic IC50 level after 24 hrs by propidium iodide staining based flow cytometry (reference value: 2.53%). The class given is functional.
For assay [24], the system named is Escherichia coli. As to the kind of experiment: Inhibition of Fe(2+)-induced DNA cleavage of Escherichia coli pUC19 at 1:2 compound to iron ratio by agarose gel elctrophoresis method.
Assay [25] has as its system Escherichia coli. As to the kind of experiment: Inhibition of Fe(2+)-induced DNA cleavage of Escherichia coli pUC19 at 1:1 compound to iron ratio by agarose gel elctrophoresis method.

In the case of `COc1ccc(C(=O)/C=C/c2ccc(/C=C/C(=O)c3cccc4c3C(=O)c3ccccc3C4=O)cc2)cc1`, the IC50 with MRC5 worked out at 47.4 µM; in the assay on HeLa [1], 4.96 µM; in the assay on A549 [2], 47.7 µM; in assay [3] it was 34.1 µM.

For the compound `O=C(/C=C/c1ccc(Cl)cc1)c1cccc2c1C(=O)c1ccccc1C2=O`, the IC50 with MRC5 worked out at 52 µM; with HeLa [1] it was 33.1 µM; in the assay with A549 [2] it was 35.3 µM; in [3], 47.2 µM.

On to `O=C(/C=C/c1ccc(/C=C/C(=O)c2cccc3c2C(=O)c2ccccc2C3=O)cc1)c1ccccc1F`, for which the IC50 in the assay on MRC5 came to 31.5 µM; in the assay with HeLa [1] it was 2.66 µM; in the assay with A549 [2] it was 31.6 µM; in [3] it was 17.8 µM.

For the compound `Cc1cccc(/C=C/C(=O)c2cccc3c2C(=O)c2ccccc2C3=O)c1`, the IC50 was 33.7 µM in the assay with MRC5, 11.6 µM in the assay on HeLa [1], 33 µM with A549 [2] and 21.5 µM in [3].

Turning to `O=C(/C=C/c1ccc(/C=C/C(=O)c2cccc3c2C(=O)c2ccccc2C3=O)cc1)c1ccccc1[N+](=O)[O-]`, the outcome in the assay with HeLa [4], in the assay with A549 [7], in the assay on Calf thymus DNA [8], in the assay on A549 [10], in the assay with HeLa [15] and in the assay with HeLa [16] was Active. For the same compound, the 50% inhibitory concentration (IC50) in the assay on MRC5 was 48.8 µM; in the assay with HeLa [1], 2.73 µM; in the assay on A549 [2] it was 28.8 µM; in assay [3] it was 6.44 µM. Moreover, in the assay filed under Bos taurus [5], the inhibition result is “Dose-dependent effect”. In addition, the Activity is given as 25.39% in the assay with HeLa [6]; 31.41% in the assay on HeLa [9]; 41.5% in the assay with HeLa [13]; 35.58% with HeLa [14]; 4.65% in the assay with HeLa [17]; 17.66% with HeLa [20]. Further, the Activity was 34.15% in the assay with HeLa [22] and 5.14% in the assay on HeLa [23]. Besides, the outcome in the assay on Escherichia coli [11], in the assay on A549 [18] and in the assay filed under Bos taurus [19] was inactive. In the assay filed under Bos taurus [12], this compound came in with an Imax of 41%. Moreover, the Kb in the assay with Calf thymus DNA [21] was 2.51 ×10³ /M.

Take `Cc1ccccc1C(=O)/C=C/c1ccc(/C=C/C(=O)c2cccc3c2C(=O)c2ccccc2C3=O)cc1`: the outcome in the assay with HeLa [4], in the assay on A549 [7], in the assay with Calf thymus DNA [8], in the assay on A549 [10], in the assay with HeLa [15] and in the assay on HeLa [16] was Active. The IC50 in the assay with MRC5 came out at 41.9 µM; with HeLa [1], 2.36 µM; in the assay with A549 [2] it was 29.1 µM; in assay [3], 3.13 µM. In the assay filed under Bos taurus [5], the inhibition result was “Dose-dependent effect”. The Activity in the assay with HeLa [6] is on record as 24.44%; in the assay on HeLa [9], 32.79%; in the assay with HeLa [13] it was 38.76%; in the assay with HeLa [14], 36.75%; in the assay with HeLa [17], 5.56%; in the assay on HeLa [20], 17.29%. Besides, the Activity in the assay on HeLa [22] stood at 31.12%; in the assay on HeLa [23], 7.89%. The result with Escherichia coli [11], in the assay on A549 [18] and in the assay filed under Bos taurus [19] was inactive. Besides, in the assay filed under Bos taurus [12], the Imax amounted to 61%. The Kb with Calf thymus DNA [21] worked out at 1.36 ×10³ /M.

For `O=C(/C=C/c1ccccc1)c1cccc2c1C(=O)c1ccccc1C2=O`, the IC50 came out at 46.4 µM in the assay with MRC5, 14.8 µM in the assay with HeLa [1], 35.5 µM in the assay with A549 [2] and 31.3 µM in assay [3].

As to `O=C(/C=C/c1ccc(/C=C/C(=O)c2cccc3c2C(=O)c2ccccc2C3=O)cc1)c1ccccc1`, the result in the assay on HeLa [4], with A549 [7], in the assay on Calf thymus DNA [8], in the assay on HeLa [15] and with HeLa [16] was Active. The IC50 was found to be 33.6 µM with MRC5, 2.41 µM in the assay on HeLa [1], 26.2 µM with A549 [2] and 4.56 µM in assay [3]. In addition, in the assay listed under Bos taurus [5], the inhibition result is “Dose-dependent effect”. Moreover, the inhibition entry in the assay with Escherichia coli [24] was “inactive”. In addition, the Activity with HeLa [6] was determined as 23.04%; in the assay with HeLa [9], 35.25%; with HeLa [13] it was 37.54%; in the assay with HeLa [14], 36.61%; with HeLa [17], 4.66%; in the assay with HeLa [20], 17.06%. Also, the Activity is 34.02% in the assay with HeLa [22] and 4.96% in the assay with HeLa [23]. Further, the result in the assay with Escherichia coli [11], in the assay on A549 [18] and in the assay listed under Bos taurus [19] was inactive. Besides, in the assay filed under Bos taurus [12], the Imax was determined as 52%. Also, in the assay on Escherichia coli [25], the inhibition result is “Active”. The Kb with Calf thymus DNA [21] was found to be 2.65 ×10³ /M.

For the compound `Cc1ccc(C(=O)/C=C/c2ccc(/C=C/C(=O)c3cccc4c3C(=O)c3ccccc3C4=O)cc2)cc1`, the IC50 in the assay with MRC5 was 38.5 µM; in the assay on HeLa [1], 2.64 µM; with A549 [2], 24.2 µM; in [3], 22.6 µM.

On to `COc1cccc(C(=O)/C=C/c2ccc(/C=C/C(=O)c3cccc4c3C(=O)c3ccccc3C4=O)cc2)c1`, for which the IC50 amounted to 46.5 µM with MRC5, 2.77 µM in the assay on HeLa [1], 30.9 µM in the assay with A549 [2] and 16.7 µM in assay [3].

In the case of `Cc1ccccc1/C=C/C(=O)c1cccc2c1C(=O)c1ccccc1C2=O`, the half-maximal inhibitory concentration (IC50) was 48.6 µM in the assay on MRC5, 12.1 µM in the assay with HeLa [1], 44.6 µM in the assay on A549 [2] and 45.2 µM in assay [3].

As for `COc1ccccc1C(=O)/C=C/c1ccc(/C=C/C(=O)c2cccc3c2C(=O)c2ccccc2C3=O)cc1`, the IC50 in the assay on MRC5 was 43.6 µM; with HeLa [1] it was 2.7 µM; with A549 [2] it was 28.1 µM; in assay [3] it was 10.8 µM.

In the case of `O=C(/C=C/c1ccc(/C=C/C(=O)c2cccc3c2C(=O)c2ccccc2C3=O)cc1)c1ccc(F)cc1`, the 50% inhibitory concentration (IC50) in the assay with MRC5 was 37 µM; with HeLa [1], 2.62 µM; in the assay on A549 [2], 36.3 µM; in [3] it was 10.6 µM.

As for `Cc1cccc(C(=O)/C=C/c2ccc(/C=C/C(=O)c3cccc4c3C(=O)c3ccccc3C4=O)cc2)c1`, the IC50 in the assay with MRC5 was 52 µM; with HeLa [1] it was 2.45 µM; with A549 [2], 33.7 µM; in assay [3], 11.8 µM.

As to `Cc1ccc(/C=C/C(=O)c2cccc3c2C(=O)c2ccccc2C3=O)cc1`, the IC50 in the assay with MRC5 came to 50.5 µM; with HeLa [1], 34.1 µM; in the assay with A549 [2] it was 38.3 µM; in [3], 48.2 µM.

The IC50 is the midpoint of a concentration-inhibition curve.
